Measured values taken from patent US12304898B2, “Quinolyl-containing compound and pharmaceutical composition, and use thereof” (PrimeGene (Beijing) Co., Ltd., priority 2019, dated 2025).

Key:
[1] = biological target: VEGFR2 (KDR) (Homo sapiens (Human), UniProt P35968); test: VEGFR2 (KDR) mobility shift assay; type: biochemical; settings: VEGFR2 0.5 nM, ATP 95 μM, read-out: IC50, inhibitory effect on kinase VEGFR2
Protocol: Detect compounds on VEGFR2 (KDR) by mobility shift assay. The initial test concentration of a compound was 1000 nM, 3 times dilution, 10 concentrations, and detection in duplicate. Nintedanib (Selleckchem, Cat. S1010) was used as the positive control compound. The operation method was briefly described as follows: kinase VEGFR2 (Carna, Cat. 08-191) at the final concentration of 0.5 nM and the test compound were mixed in the Optiplate-384F well plate and incubated for 10 minutes at room temperature. Then, ATP at a final concentration of 95 μM and 3 μM Kinase substrate 22 (Gill Biochemical (glbiochem), Cat. 112393) were added. After mixing, react at room temperature for 30 minutes. Add stop detection solution to terminate the reaction and read the conversion rate with Caliper EZ ReaderlI.
Wherein, Conversion %_sample refers to the conversion rate reading of the sample; Conversion %_min: the average value of the negative control wells, which represents the conversion rate readings of the wells without enzyme activity; Conversion %_max: the average value of the positive control wells, represents the conversion rate readings of the wells without compound inhibition.
Fitting the dose-response curve: Take the log of the concentration as the X-axis, and the percentage of inhibition rate as the Y-axis. The dose response curve was fitted by the analysis software GraphPad Prism 5 with log(inhibitor) vs. response—Variable slope to obtain the inhibitory activity (IC50) of each compound.

[2] = biological target: HDAC6 (Homo sapiens (Human), UniProt Q9UBN7); test: HDAC6 fluorescence analysis, inhibition of HDAC6 activity; type: biochemical; settings: HDAC6 0.3 nM solution, substrate 15 μM, fluorescence readout; read-out: IC50, inhibitory effect on HDAC6
Protocol: HDAC6 fluorescence analysis method was used to detect the inhibitory effect of the compounds on the activity of HDAC6. The specific operation is as follows:
Prepare a 10 mM stock solution of a compound with DMSO. Take 10 μl of stock solution and dilute with 90 μl DMSO to become a 1 mM working solution. […] Add 3 μl of each concentration to 197 μl reaction buffer (20 mM Hepes pH 8.0, 137 mM NaCl, 2.7 mM KCl, 1 mM MgCl2, 0.05% BSA, 0.5 mM TCEP), mix well and add 10 μl to a 384-well plate. In the final reaction system, the concentrations of the compound were 10 μM to 0.51 nM. Duplicate, and add 10 μl 3XHDAC solution (BPS, Cat. 50006, 0.3 nM) to each well, followed by incubating at 23° C. for 20 minutes. Then, add 3× substrate solution (Anaspec, Cat. 61855, 15 μM), centrifuge to mix, and incubate at 23° C. for 90 minutes. Add 30 μl trypsin/SAHA mixture (20 mM Hepes pH 8.0, 100 mM NaCl, 10 mM SAHA, 0.01 mg/ml trypsin), incubate at 23° C. for 60 minutes to terminate the reaction. Finally, read fluorescence data by Envision (390 nm excitation, 460 nm emission). […] Finally, analyze the data by XLfit5 software and calculate the IC50 value of the compound. Vorinostat (SAHA) was a positive reference compound.

Sequence of HDAC6 (Q9UBN7 whole entry): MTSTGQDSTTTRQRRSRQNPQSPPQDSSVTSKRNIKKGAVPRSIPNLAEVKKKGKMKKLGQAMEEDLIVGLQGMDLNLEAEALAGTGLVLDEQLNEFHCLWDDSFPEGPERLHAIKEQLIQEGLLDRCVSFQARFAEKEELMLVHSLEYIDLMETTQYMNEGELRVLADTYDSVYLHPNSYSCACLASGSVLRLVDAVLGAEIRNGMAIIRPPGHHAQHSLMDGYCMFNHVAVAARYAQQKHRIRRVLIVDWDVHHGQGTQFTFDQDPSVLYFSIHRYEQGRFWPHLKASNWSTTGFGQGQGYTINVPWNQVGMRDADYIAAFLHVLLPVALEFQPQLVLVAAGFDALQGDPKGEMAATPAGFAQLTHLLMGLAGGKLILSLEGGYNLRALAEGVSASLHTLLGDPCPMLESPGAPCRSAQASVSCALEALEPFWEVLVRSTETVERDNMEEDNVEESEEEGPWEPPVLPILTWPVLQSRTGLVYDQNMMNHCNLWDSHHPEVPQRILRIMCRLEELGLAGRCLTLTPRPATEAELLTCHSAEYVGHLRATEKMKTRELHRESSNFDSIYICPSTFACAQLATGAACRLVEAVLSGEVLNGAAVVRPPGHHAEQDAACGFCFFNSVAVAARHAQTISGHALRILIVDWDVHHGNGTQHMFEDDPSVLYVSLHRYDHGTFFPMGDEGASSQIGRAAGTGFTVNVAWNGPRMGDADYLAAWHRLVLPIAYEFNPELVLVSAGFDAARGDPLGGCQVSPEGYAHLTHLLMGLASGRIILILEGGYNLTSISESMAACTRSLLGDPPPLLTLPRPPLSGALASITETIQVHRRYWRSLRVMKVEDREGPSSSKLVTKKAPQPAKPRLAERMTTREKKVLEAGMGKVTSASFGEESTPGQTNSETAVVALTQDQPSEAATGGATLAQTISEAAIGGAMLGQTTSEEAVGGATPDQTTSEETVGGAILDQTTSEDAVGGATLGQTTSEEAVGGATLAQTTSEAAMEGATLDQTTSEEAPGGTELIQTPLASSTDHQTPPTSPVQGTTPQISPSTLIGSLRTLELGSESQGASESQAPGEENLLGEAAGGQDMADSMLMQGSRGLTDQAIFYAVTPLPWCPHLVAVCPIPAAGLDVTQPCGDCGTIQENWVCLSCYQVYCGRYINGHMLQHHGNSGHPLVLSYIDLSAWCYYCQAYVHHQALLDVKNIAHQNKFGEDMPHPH
Sequence of VEGFR2 (KDR) (P35968 790-1356): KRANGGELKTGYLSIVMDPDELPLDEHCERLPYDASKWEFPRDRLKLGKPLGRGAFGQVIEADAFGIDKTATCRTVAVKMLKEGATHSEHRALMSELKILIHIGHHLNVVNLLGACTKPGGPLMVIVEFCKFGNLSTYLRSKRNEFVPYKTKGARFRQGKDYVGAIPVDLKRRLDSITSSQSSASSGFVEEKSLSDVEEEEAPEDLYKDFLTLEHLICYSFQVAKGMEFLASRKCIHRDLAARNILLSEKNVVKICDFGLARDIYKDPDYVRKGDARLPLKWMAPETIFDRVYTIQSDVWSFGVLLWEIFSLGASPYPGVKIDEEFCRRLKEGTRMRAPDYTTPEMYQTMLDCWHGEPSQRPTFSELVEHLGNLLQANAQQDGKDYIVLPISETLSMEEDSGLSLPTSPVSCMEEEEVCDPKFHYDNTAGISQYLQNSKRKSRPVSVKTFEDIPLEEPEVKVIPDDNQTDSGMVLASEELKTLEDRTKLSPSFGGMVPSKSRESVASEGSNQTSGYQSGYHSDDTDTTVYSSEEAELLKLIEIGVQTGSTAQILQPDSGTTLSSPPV

Row | IC50 [1] | IC50 [2] | SMILES
1 | 17 nM | 16.3 nM | COc1cc2c(Oc3ccc(NC(=O)C4(C(=O)Nc5ccc(F)cc5)CC4)cc3F)ccnc2cc1OCCCCNC(=O)CS [Example 62]
2 | 51 nM | 28.8 nM | COc1cc2c(Oc3ccc(NC(=O)C4(C(=O)Nc5ccc(F)cc5)CC4)cc3F)ccnc2cc1OCCCCCCNC(=O)CS [Example 64]
3 | 0.96 nM | 8.94 nM | CC(=O)SCC(=O)NCCCCCOc1cc2nccc(Oc3ccc(NC(=O)NC4CC4)c(Cl)c3)c2cc1C(N)=O [Example 69, S-(2-((5-((6-carbamoyl-4-(3-chloro-4-(3-cyclopropylurea)phenoxy)quinolin-7-yl)oxy)pentyl)amino)-2-oxo-ethyl)thioacetate]
4 | 4.6 nM | 27 nM | CC(=O)SCC(=O)NCCCCCOc1cc2nccc(Oc3ccc(NC(=O)C4(C(=O)Nc5ccc(F)cc5)CC4)cc3F)c2cc1C(N)=O [Example 71, S-(2-((5-((6-carbamoyl-4-(2-fluoro-4-(1-((4-fluorophenyl)carbamoyl)cyclopropane-1-methylamido)phenoxy)quinolin-7-yl)oxy)pentyl)amino)-2-oxo-ethyl)thioacetate]
